Test results published in patent publication US6838237B2, “Antigenically reactive regions of the hepatitis a virus polyprotein” (The United States of America as represented by the …, priority 1996, dated 2005).

Assays:
anti-HAV-negative sera = test: EIA for anti-HAV: synthetic peptides reacted with anti-HAV-negative sera; assay type: binding, human; details: experiment 1: sera 1:100, cutoff P/N 3.0
Procedure, shortened: (§1)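 Peptides at 10 mg/ml in 0.1 M PBS pH 7.5 adsorbed to wells 12 h at room temperature; sera diluted in PBS-Tween with 10% goat serum, incubated 60 min at 37 °C. Readout OD493 as P/N ratio, cutoff 3.0 (negative mean plus ≥3.5 SD).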

anti-HAV-positive sera = test: EIA for anti-HAV: synthetic peptides adsorbed to wells, reacted with anti-HAV-positive acute sera; assay type: binding, human; details: for Reactivity with acute sera (reactive/tested): experiment 1: sera 1:100, anti-human IgG-HRP, cutoff P/N 3.0; for Reactivity with acute sera (percent of sera reactive): experiment 1: sera 1:100, cutoff P/N 3.0; for P/N for acute sera (mean) / P/N for acute sera (range, in parentheses): experiment 1, OD493 positive/negative ratio of reactive sera
Procedure, shortened: as §1

| Sequence | Reactivity with negative sera (reactive/tested) (anti-HAV-negative sera) | Reactivity with acute sera (reactive/tested) (anti-HAV-positive sera) | Reactivity with acute sera (percent of sera reactive) (anti-HAV-positive sera) [%] | P/N for acute sera (mean) (anti-HAV-positive sera) | P/N for acute sera (range, in parentheses) (anti-HAV-positive sera) | immunoreactivity with anti-HAV-positive sera (in words) (anti-HAV-positive sera) | mean P/N ratio with anti-HAV-positive sera (anti-HAV-positive sera) | percent of (IgM) anti-HAV-positive sera immunoreactive with peptide (anti-HAV-positive sera) [%] |
| --- | --- | --- | --- | --- | --- | --- | --- | --- |
| TKPVASDYWDGYSGQLVCII [YK-1352] | 0/51 | 8/48 | 16.7 | 4.45 | (3.38-5.81) | – | – | – |
| TPVGLAVDTPWVEKESALSI [YK-1290] | 1/51 | 6/48 | 12.5 | 4.48 | (3.0-6.44) | – | – | – |
| TTVSTEQNVPDPQVGITTMK [YK-1265] | 0/46 | 9/41 | 22.0 | 6.7 | (3.23-9.57) | – | – | – |
| VAKLVTQEMFQNIDKKIESQ [YK-1393] | 1/27 | 24/41 | 58.5 | 10.15 | (4.64-16.36) | very broad and strong antigenic reactivity | 10.15 | 58.5 |
| VASHVRVNVYLSAINLECFA [YK-1261] | 1/46 | 16/41 | 39.0 | 5.27 | (3.72-7.9) | broadly and strongly immunoreactive | – | – |
| VDDPRSEEDKRFESHIECRK [YK-1314] | 1/51 | 26/48 | 54.2 | 14.68 | (3.53-89.96) | broad and strong antigenic reactivity | – | – |
| VIQQLNQDEHSHIIGLLRVM [YK-1334] | 2/51 | 5/48 | 10.4 | 4.27 | (3.16-5.27) | marginally immunoreactive | – | – |
| VKEAIDRRLHFKVEVKPASF [YK-1361] | 0/46 | 5/41 | 12.2 | 4.12 | (3.21-6.28) | – | – | – |
| VKPASFFKNPHNDMLNVNLA [YK-1362] | 0/41 | 6/41 | 14.6 | 7.82 | (3.4-18.05) | – | – | – |
| VLPPPRKMKGLFSQAKISLF [YK-1318] | 0/51 | 15/48 | 31.3 | 5.94 | (3.4-8.68) | – | – | – |
| VMTVEIRKQNMTEFMELWSQ [YK-1367] | 1/41 | 9/41 | 22.0 | 7.82 | (4.18-16.26) | – | – | 22.0 |
| VSGCPMRLNMASLEEKGRHF [YK-1356] | 0/51 | 8/48 | 16.7 | 5.49 | (3.36-10.96) | – | – | – |
| WQRSNAEFEQNLENAQWFAF [YK-1436] | 1/27 | 4/41 | 9.8 | 4.49 | (3.35-5.89) | – | – | – |
